According to PubChem BioAssay (NCI):
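Exposure lasted 48 hours, with cells grown in 96-well plates and compounds tested at five concentrations. GI50: concentration for 50% inhibition of growth. TGI denotes the concentration required for complete inhibition of growth.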

Assays:
Assay in all cases: DTP human tumour cell line panel, 48 h
[1] = tested on: CCRF-CEM leukemia
[2] = tested on: HCT-116 colon
[3] = tested on: IGROV1 ovarian
[4] = tested on: KM12 colon
[5] = tested on: NCI-H460 lung
[6] = tested on: OVCAR-8 ovarian
[7] = tested on: RPMI-8226 leukemia
[8] = tested on: SF-295 CNS
[9] = tested on: SK-MEL-28 melanoma
[10] = tested on: UACC-257 melanoma

Cc1nnc2sc(-c3ccc(N)cc3)nn12
TGI [1]: > 100 µM
TGI [2]: > 100 µM
TGI [3]: > 100 µM
TGI [4]: > 100 µM
TGI [5]: > 100 µM
TGI [6]: > 100 µM
TGI [7]: > 100 µM
TGI [8]: > 100 µM
TGI [9]: > 100 µM
TGI [10]: > 100 µM

CCOC(=O)C1=C(C)N2CCCOC2(C)C(C(=O)OC)C1c1cccc([N+](=O)[O-])c1 (centres undefined)
TGI [1]: > 100 µM
TGI [2]: > 100 µM
TGI [3]: > 100 µM
TGI [4]: > 100 µM
TGI [5]: > 100 µM
TGI [6]: > 100 µM
TGI [7]: > 100 µM
TGI [8]: > 100 µM
TGI [9]: > 100 µM
TGI [10]: > 100 µM

CC(=O)O[C@H]1CC[C@]2(C)[C@H]3C(=O)C=C4[C@@H]5C[C@](C)(C(=O)N6CCCNCC6)CC[C@]5(C)CC[C@@]4(C)[C@]3(C)CC[C@H]2C1(C)C
GI50 [4]: 1710 nM
TGI [4]: 3.21 µM
GI50 [5]: 1580 nM
TGI [5]: 3.11 µM
GI50 [7]: 1460 nM
TGI [7]: 4.01 µM
GI50 [8]: 1760 nM
TGI [8]: 3.2 µM
GI50 [9]: 1850 nM
TGI [9]: 3.29 µM
GI50 [10]: 1980 nM
TGI [10]: 4.26 µM

O=[N+]([O-])/C=C/c1cccc(F)c1
TGI [1]: 5.5 µM
TGI [2]: 8.86 µM
TGI [3]: > 100 µM
TGI [4]: 10.3 µM
TGI [5]: 30.4 µM
TGI [6]: 32 µM
TGI [7]: 4.14 µM
TGI [8]: 30.2 µM
TGI [9]: 5.87 µM
TGI [10]: 15.8 µM

COc1cc2c(cc1OC)C(C1(O)CCCCC1)NCC2 (centres undefined)
TGI [1]: > 100 µM
TGI [2]: > 100 µM
TGI [3]: > 100 µM
TGI [4]: > 100 µM
TGI [5]: > 100 µM
TGI [6]: > 100 µM
TGI [7]: > 100 µM
TGI [8]: > 100 µM
TGI [9]: > 100 µM
TGI [10]: > 100 µM

C=C(/C=C/C=C(/CCC=C(C)C)COC(C)=O)[C@@H]1CC[C@]2([C@H](CCCO)/C(=C(/C)C=O)CC[C@]2(C)O)[C@@H]1O
TGI [1]: 4.97 µM
TGI [2]: 45.6 µM
TGI [3]: 36.2 µM
TGI [4]: 32.4 µM
TGI [5]: 24.3 µM
TGI [6]: 52.3 µM
TGI [8]: 19.6 µM
TGI [9]: 26.9 µM
TGI [10]: 32.6 µM

Cc1c(Cl)c(S(N)(=O)=O)cc(S(N)(=O)=O)c1NC(=O)c1ccc(Cl)cc1
TGI [1]: > 100 µM
TGI [2]: > 100 µM
TGI [3]: > 100 µM
TGI [4]: > 100 µM
TGI [5]: > 100 µM
TGI [6]: > 100 µM
TGI [7]: > 100 µM
TGI [8]: > 100 µM
TGI [9]: > 100 µM
TGI [10]: > 100 µM

NC(Cc1ccc2oc3cc(=O)c4ccccc4c-3nc2c1)C(=O)O (centres undefined)
TGI [1]: 71.1 µM
TGI [2]: 76.8 µM
TGI [3]: > 100 µM
TGI [4]: > 100 µM
TGI [5]: 32 µM
TGI [6]: > 100 µM
TGI [7]: > 88.3 µM
TGI [8]: 55.5 µM
TGI [9]: 59 µM
TGI [10]: 39.3 µM

Nc1nc(Cl)cc(NCCCCO)n1
TGI [1]: > 100 µM
TGI [2]: > 100 µM
TGI [3]: > 100 µM
TGI [4]: > 100 µM
TGI [5]: > 100 µM
TGI [6]: > 100 µM
TGI [7]: > 100 µM
TGI [8]: > 100 µM
TGI [9]: > 100 µM
TGI [10]: > 100 µM

NC(=O)c1nnc2cc(F)c(F)cc2c1N
TGI [1]: > 100 µM
TGI [2]: > 100 µM
TGI [3]: > 100 µM
TGI [4]: > 100 µM
TGI [5]: > 100 µM
TGI [6]: > 100 µM
TGI [7]: > 100 µM
TGI [8]: 64.5 µM
TGI [10]: > 100 µM

N=C(N)SC1c2ccccc2-c2cc([N+](=O)[O-])ccc21 (centres undefined)
TGI [1]: 20.3 µM
TGI [2]: 16.3 µM
TGI [3]: 18 µM
TGI [4]: 11.4 µM
TGI [5]: 17.2 µM
TGI [6]: 37.1 µM
TGI [7]: 30.1 µM
TGI [8]: 15.7 µM
TGI [9]: 17.5 µM
TGI [10]: 20.9 µM

C#CCCCCC#CC1CCCC1C1=CC(=O)c2ccccc21 (centres undefined)
TGI [2]: 2.91 µM
TGI [3]: 19.4 µM
TGI [4]: 19.6 µM
TGI [5]: 32.5 µM
TGI [6]: 3.52 µM
TGI [7]: 6.46 µM
TGI [8]: 16.8 µM
TGI [9]: 18.5 µM
TGI [10]: 25.2 µM
